Experiments:
[1] = biological target: T1, UGT1A1 (Homo sapiens, UniProt P22309); experiment: biochemical
T1 sequence (P22309 26-533): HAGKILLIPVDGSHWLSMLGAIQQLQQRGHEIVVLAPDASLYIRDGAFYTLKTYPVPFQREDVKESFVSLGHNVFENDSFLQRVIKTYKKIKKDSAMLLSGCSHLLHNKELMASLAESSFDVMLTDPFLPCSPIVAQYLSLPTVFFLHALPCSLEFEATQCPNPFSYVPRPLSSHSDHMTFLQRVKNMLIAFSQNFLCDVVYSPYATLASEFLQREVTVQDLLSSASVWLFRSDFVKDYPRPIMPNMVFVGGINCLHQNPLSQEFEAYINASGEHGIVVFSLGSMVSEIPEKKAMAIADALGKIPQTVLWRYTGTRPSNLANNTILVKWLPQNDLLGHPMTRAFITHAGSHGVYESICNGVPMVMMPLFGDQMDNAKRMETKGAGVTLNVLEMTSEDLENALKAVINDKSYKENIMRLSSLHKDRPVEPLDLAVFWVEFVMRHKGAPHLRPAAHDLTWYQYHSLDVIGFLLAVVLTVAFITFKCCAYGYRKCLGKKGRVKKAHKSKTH

[2] = test system: OAT3; conditions: inhibition of OAT3, implemented in DDI model; ref [41]; cited from earlier work
[3] = biological target: T2, ASBT (Homo sapiens, UniProt Q12908); conditions: inhibition of ASBT, implemented in DDI model; ref [38]; cited from earlier work
T2 sequence (Q12908 1-348): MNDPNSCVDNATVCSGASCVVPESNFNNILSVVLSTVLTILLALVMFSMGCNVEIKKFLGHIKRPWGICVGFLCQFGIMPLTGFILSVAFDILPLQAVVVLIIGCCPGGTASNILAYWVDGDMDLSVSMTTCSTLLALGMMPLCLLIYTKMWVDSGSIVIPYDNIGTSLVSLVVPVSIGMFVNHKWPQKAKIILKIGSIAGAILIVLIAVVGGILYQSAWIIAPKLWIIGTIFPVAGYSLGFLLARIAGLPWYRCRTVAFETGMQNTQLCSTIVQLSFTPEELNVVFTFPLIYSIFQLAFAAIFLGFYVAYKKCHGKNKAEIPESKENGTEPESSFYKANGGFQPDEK

[4] = biological target: T3, UGT1A4 (Homo sapiens, UniProt P22310); experiment: biochemical
T3 sequence (P22310 29-534): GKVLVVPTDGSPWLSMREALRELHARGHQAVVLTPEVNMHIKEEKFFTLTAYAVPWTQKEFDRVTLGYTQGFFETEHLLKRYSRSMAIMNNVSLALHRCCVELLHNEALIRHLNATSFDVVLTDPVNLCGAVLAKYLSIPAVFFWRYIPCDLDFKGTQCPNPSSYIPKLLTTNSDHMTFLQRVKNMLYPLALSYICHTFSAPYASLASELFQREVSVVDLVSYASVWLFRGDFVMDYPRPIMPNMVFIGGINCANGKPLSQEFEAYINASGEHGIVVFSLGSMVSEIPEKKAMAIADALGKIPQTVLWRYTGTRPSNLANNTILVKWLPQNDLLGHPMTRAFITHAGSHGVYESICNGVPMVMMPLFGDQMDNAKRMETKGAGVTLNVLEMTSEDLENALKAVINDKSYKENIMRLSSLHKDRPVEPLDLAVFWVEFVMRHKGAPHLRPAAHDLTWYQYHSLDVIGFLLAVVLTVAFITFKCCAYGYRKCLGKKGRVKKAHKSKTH

[5] = biological target: T4, UGT1A9 (Homo sapiens, UniProt O60656); experiment: biochemical
T4 sequence (O60656 26-530): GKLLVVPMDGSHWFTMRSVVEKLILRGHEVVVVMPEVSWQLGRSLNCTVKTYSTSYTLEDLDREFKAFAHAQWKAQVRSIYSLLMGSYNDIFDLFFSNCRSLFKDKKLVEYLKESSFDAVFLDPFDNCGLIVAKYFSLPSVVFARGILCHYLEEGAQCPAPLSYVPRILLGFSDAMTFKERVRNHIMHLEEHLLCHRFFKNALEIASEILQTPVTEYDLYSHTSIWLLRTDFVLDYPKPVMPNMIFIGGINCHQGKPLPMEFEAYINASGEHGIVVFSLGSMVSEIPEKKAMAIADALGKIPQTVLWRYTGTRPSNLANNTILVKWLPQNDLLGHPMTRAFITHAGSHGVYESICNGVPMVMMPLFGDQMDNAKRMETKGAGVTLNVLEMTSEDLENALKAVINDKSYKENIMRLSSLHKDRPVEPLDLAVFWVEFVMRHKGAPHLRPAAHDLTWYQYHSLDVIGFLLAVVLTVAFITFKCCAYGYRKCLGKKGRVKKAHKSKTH

[6] = biological target: T5, UGT2B7 (Homo sapiens, UniProt P16662); experiment: biochemical
T5 sequence (P16662 24-529): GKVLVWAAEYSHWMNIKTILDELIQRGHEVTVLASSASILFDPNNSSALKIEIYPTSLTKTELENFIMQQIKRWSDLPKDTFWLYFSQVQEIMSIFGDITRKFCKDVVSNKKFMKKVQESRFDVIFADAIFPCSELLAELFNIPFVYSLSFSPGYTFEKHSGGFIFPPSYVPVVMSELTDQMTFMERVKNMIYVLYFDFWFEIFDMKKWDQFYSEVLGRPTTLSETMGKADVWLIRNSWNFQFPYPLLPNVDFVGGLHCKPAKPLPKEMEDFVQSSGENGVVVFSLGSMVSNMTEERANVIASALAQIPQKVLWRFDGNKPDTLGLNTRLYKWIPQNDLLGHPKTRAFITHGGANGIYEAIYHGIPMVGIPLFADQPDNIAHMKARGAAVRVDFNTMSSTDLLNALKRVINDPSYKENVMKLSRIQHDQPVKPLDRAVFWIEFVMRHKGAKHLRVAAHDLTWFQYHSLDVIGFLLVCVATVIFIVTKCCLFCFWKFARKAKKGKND

[7] = biological target: T6, MATE1 (Homo sapiens, UniProt Q96FL8); conditions: 4 µM probe substrate, HEK 293-MATE1
T6 sequence (Q96FL8 1-570): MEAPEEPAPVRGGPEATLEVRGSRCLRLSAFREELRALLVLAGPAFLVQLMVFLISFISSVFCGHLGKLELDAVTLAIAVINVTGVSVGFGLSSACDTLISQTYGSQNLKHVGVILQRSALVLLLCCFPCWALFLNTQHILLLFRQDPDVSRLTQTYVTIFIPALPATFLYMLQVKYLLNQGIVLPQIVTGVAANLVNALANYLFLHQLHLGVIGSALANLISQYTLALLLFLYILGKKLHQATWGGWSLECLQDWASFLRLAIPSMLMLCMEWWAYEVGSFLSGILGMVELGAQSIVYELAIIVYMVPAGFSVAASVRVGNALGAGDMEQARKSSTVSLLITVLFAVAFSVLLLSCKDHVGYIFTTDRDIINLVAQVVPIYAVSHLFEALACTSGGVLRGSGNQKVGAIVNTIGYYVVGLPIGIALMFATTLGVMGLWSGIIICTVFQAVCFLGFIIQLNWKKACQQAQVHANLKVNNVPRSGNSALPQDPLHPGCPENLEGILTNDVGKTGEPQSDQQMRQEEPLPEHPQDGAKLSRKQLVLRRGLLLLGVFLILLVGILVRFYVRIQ
Method: (§1) OCT1-, OCT2-, MATE1-, and MATE2K-overexpressing HEK 293 cells and mock cells. To
(§2) aminohippuric acid for OAT1, 4 µM [14C]Metformin for OCT1, OCT2, MATE1, and
(§3) lein for OATP2B1, 100 µM probenecid for OAT1, 100 µM verapamil for OCT1, 200 µM
(§4) and MATE2K, respectively).
(§5) and –MATE2K and mock cells.

[8] = biological target: T7, OCT2 (Homo sapiens, UniProt O15244); conditions: 4 µM probe substrate, HEK 293-OCT2
T7 sequence (O15244 1-555): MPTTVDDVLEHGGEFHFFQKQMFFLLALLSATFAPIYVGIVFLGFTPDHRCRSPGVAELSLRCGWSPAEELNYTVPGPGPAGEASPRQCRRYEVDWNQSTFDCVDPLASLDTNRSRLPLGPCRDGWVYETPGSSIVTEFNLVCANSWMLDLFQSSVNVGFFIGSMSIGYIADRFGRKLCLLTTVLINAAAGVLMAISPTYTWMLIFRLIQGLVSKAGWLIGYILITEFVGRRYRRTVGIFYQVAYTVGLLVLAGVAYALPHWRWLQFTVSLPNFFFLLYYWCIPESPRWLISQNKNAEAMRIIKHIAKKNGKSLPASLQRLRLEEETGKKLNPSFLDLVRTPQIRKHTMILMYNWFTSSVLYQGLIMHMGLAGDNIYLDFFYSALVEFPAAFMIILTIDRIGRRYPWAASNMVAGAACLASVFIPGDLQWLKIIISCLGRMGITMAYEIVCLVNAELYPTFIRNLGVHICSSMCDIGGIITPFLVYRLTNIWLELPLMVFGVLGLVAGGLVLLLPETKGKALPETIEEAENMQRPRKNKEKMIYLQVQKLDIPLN
Method: as §1, §2, §3, §4, §5

[9] = biological target: MATE2K (Homo sapiens, UniProt Q86VL8); conditions: 4 µM probe substrate, HEK 293-MATE2K
Method: as §1, §2, §3, §4, §5

[10] = biological target: T8, OCT1 (Homo sapiens, UniProt O15245); conditions: 4 µM probe substrate, HEK 293-OCT1
T8 sequence (O15245 1-554): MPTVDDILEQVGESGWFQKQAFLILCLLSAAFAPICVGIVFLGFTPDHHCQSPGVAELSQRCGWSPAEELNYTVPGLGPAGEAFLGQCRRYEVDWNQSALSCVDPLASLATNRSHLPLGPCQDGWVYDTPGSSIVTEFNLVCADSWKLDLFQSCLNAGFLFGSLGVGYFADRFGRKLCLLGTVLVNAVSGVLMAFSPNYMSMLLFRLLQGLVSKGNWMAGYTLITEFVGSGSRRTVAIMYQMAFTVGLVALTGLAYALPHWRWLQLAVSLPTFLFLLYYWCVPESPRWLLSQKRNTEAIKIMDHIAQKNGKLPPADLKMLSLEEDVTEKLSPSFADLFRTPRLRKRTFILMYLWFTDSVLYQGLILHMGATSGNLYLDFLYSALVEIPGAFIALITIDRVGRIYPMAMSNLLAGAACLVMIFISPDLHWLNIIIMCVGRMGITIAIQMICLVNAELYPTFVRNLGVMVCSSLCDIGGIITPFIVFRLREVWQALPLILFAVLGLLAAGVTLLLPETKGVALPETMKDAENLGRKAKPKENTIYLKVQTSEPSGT
Method: as §1, §2, §3, §4, §5

MATE2K, sequence (Q86VL8 1-566 isoform Q86VL8-3): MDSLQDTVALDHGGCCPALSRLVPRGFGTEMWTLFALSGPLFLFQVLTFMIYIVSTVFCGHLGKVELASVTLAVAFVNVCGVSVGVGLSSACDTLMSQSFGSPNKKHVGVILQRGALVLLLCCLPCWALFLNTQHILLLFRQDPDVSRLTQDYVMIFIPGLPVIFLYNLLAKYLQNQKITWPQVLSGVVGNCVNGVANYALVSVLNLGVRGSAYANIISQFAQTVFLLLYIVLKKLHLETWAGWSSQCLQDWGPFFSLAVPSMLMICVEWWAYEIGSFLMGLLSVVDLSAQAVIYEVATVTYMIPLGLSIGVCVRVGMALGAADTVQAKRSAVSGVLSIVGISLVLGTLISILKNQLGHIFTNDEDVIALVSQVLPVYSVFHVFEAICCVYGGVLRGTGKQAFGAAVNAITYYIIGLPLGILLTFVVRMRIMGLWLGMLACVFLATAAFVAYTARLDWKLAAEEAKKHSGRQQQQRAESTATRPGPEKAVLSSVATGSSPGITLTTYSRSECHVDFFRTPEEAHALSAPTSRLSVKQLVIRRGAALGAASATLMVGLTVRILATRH

COC(=O)N[C@H](C(=O)N[C@@H](Cc1ccccc1)[C@@H](O)CN(Cc1ccc(-c2ccccn2)cc1)NC(=O)[C@@H](NC(=O)OC)C(C)(C)C)C(C)(C)C [Atazanavir]
IC50 [1]: 290 nM

CCc1ccc(CCOc2ccc(CC3SC(=O)NC3=O)cc2)nc1 (stereo not shown) [pioglitazone]
Ki [2]: 1020 nM | Ki [3]: 54600 nM

C[C@@H]1CC[C@@]2(OC1)O[C@H]1C[C@H]3[C@@H]4CC[C@H]5C[C@@H](O)CC[C@]5(C)[C@H]4CC(=O)[C@]3(C)[C@H]1[C@@H]2C [Hecogenin]
IC50 [4]: 2100 nM

O=C(O)c1cccnc1Nc1cccc(C(F)(F)F)c1 [Niflumic acid]
IC50 [5]: 280 nM

O=C1Nc2ccc(Cl)cc2[C@@](C#CC2CC2)(C(F)(F)F)O1 [Efavirenz]
IC50 [6]: 27300 nM

CN(C)C(N)=NC(=N)N [[14C]Metformin]
Increase of probe substrate uptake rate in transporter-expressing cells compared to mock cells [7]: 18.3 fold | Increase of probe substrate uptake rate in transporter-expressing cells compared to mock cells [8]: 8.0 fold | Increase of probe substrate uptake rate in transporter-expressing cells compared to mock cells [9]: 4.2 fold | Increase of probe substrate uptake rate in transporter-expressing cells compared to mock cells [10]: 4.8 fold
